Experimental data reported in ChEMBL document CHEMBL4825686, “HTS-based discovery and optimization of novel positive allosteric modulators of the α7 nicotinic acetylcholine receptor” (Eur J Med Chem, 2021).
pEC50: −log10 of the molar value. Active and inactive are the calls of the source. No cut-off for these calls is given here.

Tests used:
[1] = Mutagenicity in Salmonella typhimurium TA100 in presence of rat liver S9 fraction by AMES test; format: toxicity, subcellular; conditions: salmonella enterica subsp. enterica serovar typhimurium
[2] = molecular target: Neuronal acetylcholine receptor; alpha3/beta4 (Homo sapiens) (UniProt P30926+P32297); experiment: Agonist activity at alpha3beta4 nAChR (unknown origin) upto 30 uM by automated Q-patch clamp assay; conditions: dose microM <=30
[3] = Ratio of drug level in Wistar rat brain to plasma at 1 mg/kg, ip measured after 35 mins by HPLC-MS/MS analysis; format: ADME, organism-based; conditions: read-out: BPR
[4] = Apparent permeability across apical to basolateral side in vinblastine-treated human Caco-2 cells expressing P-glycoprotein at 10 uM incubated for 120 mins by HPLC analysis; format: ADME
[5] = molecular target: T1, GABA-A receptor; alpha-1/beta-3/gamma-2 (Homo sapiens) (UniProt P14867+P18507+P28472); experiment: Activation of human alpha1beta3gamma2 GABAA receptor expressed in HEK293 cells assessed as enhancement of GABA induced channel current response at 1 to 10 uM measured after 7 to 10 mins at -80 mV holding potential by whole-cell patch clamp assay; format: cell-based; conditions: dose 1-10 µM, time 7-10 min
[6] = molecular target: T1, GABA-A receptor; alpha-1/beta-3/gamma-2 (Homo sapiens); experiment: Inhibition of human alpha1beta3gamma2 GABAA receptor expressed in HEK293 cells assessed as inhibition of GABA induced channel current response at 1 to 10 uM measured after 7 to 10 mins at -80 mV holding potential by whole-cell patch clamp assay; format: cell-based; conditions: dose 1-10 µM, time 7-10 min
[7] = molecular target: Neuronal acetylcholine receptor subunit alpha-7 (Homo sapiens, UniProt P36544); experiment: Positive allosteric modulator activity at human alpha7 nAChR expressed in Flp-In-HEK293 cells co-expressing RIC-3 assessed as potentiation of PNU282987-induced calcium influx measured after 10 mins by FLIPR assay; format: cell-based, Flp-In-293; conditions: read-out: EC50
[8] = Metabolic stability in human liver microsomes assessed as intrinsic clearance at 1 uM measured per mg protein upto 40 mins; format: ADME, Microsome; conditions: read-out: CLH
[9] = Metabolic stability in Wistar rat liver microsomes assessed as intrinsic clearance at 1 uM measured per mg protein upto 40 mins; format: ADME, Microsome; conditions: read-out: CLH
[10] = Metabolic stability in NMRI mouse liver microsomes assessed as intrinsic clearance at 1 uM measured per mg protein upto 40 mins; format: ADME, Microsome; conditions: read-out: CLH
[11] = molecular target: 5-hydroxytryptamine receptor 2B (Homo sapiens) (UniProt P41595); experiment: Binding affinity to human recombinant 5-HT2B receptor assessed as displacement of radioligand at 10 uM by displacement binding assay
[12] = molecular target: Sigma non-opioid intracellular receptor 1 (Homo sapiens) (UniProt Q99720); experiment: Binding affinity to human recombinant sigma-1 receptor assessed as displacement of radioligand at 10 uM by displacement binding assay
[13] = molecular target: T2, 5-hydroxytryptamine receptor 3A (Homo sapiens) (UniProt P46098); experiment: Displacement of [3H]GR65630 from human 5-HT3 receptor expressed in HEK293 cells at 10 uM by displacement binding assay; format: cell-based
T2 sequence (whole entry): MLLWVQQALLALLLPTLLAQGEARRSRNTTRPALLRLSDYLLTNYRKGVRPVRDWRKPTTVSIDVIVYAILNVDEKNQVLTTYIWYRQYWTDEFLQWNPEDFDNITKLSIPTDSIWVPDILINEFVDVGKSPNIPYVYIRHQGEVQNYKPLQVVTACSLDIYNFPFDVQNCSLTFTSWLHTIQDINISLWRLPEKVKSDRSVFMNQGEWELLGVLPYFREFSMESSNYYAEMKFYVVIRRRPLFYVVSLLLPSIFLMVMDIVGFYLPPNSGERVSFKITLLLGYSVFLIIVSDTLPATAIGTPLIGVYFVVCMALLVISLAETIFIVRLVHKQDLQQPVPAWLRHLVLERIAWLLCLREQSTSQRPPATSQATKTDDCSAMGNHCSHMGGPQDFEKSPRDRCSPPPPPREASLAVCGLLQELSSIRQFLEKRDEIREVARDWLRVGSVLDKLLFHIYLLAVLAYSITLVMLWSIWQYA

[14] = molecular target: T3, Glutamate NMDA receptor (Rattus norvegicus) (UniProt P35439+Q00959+Q00960+Q00961+Q62645+Q8VHN2+Q9R1M7); experiment: Displacement of [3H]MDL105519 from NMDA receptor in Wistar rat cerebral cortex at 10 uM by displacement binding assay; format: tissue-based
[15] = molecular target: T3, Glutamate NMDA receptor (Rattus norvegicus); experiment: Displacement of [3H]CGP39653 from NMDA receptor in Wistar rat cerebral cortex at 10 uM by displacement binding assay; format: tissue-based
[16] = molecular target: GABA-A receptor; anion channel (Rattus norvegicus) (UniProt O09028+P15431+P18506+P18508+P19969+P20236+P23574+P23576+P28471+P28473+P30191+P62813+P63079+P63138+Q91ZM7+Q9ES14); experiment: Displacement of [3H]flunitrazepam from GABAA receptor in Wistar rat brain without cerebellum at 10 uM by displacement binding assay; format: tissue-based
[17] = Efflux ratio of apparent permeability from basolateral to apical side over apical to basolateral side in vinblastine-treated human Caco-2 cells expressing P-glycoprotein at 10 uM incubated for 120 mins by HPLC analysis; format: ADME
Rattus norvegicus = experiment: Cognitive enhancing effect in Hannover Wistar rat assessed as increase in novel object recognition index at 1 to 10 mg/kg, po administered 30 mins prior to recognition trail by novel object recognition test; format: functional, organism-based; conditions: dose 1-10 mg/kg
[18] = Drug uptake in NMRI mouse brain at 0.1 mg/kg, ip measured after 1 hr by HPLC-MS/MS analysis; format: ADME, organism-based; conditions: read-out: Ct
[19] = Drug uptake in NMRI mouse brain at 0.3 mg/kg, ip measured after 1 hr by HPLC-MS/MS analysis; format: ADME, organism-based; conditions: read-out: Ct
[20] = Drug uptake in NMRI mouse brain at 1 mg/kg, ip measured after 1 hr by HPLC-MS/MS analysis; format: ADME, organism-based; conditions: read-out: Ct
[21] = Drug uptake in NMRI mouse brain at 3 mg/kg, ip measured after 1 hr by HPLC-MS/MS analysis; format: ADME, organism-based; conditions: read-out: Ct
[22] = Drug uptake in NMRI mouse brain at 10 mg/kg, ip measured after 1 hr by HPLC-MS/MS analysis; format: ADME, organism-based; conditions: read-out: Ct
[23] = Ratio of drug level in NMRI mouse brain to plasma at 0.1 mg/kg, ip measured after 1 hr by HPLC-MS/MS analysis; format: ADME, organism-based; conditions: read-out: BPR
[24] = Ratio of drug level in NMRI mouse brain to plasma at 10 mg/kg, ip measured after 1 hr by HPLC-MS/MS analysis; format: ADME, organism-based; conditions: read-out: BPR
[25] = Plasma concentration in Wistar rat at 3 mg/kg, ip measured after 35 mins by HPLC-MS/MS analysis; format: ADME, organism-based
[26] = Mutagenicity in Salmonella typhimurium TA98 in presence of rat liver S9 fraction by AMES test; format: toxicity, subcellular; conditions: salmonella enterica subsp. enterica serovar typhimurium
[27] = Mutagenicity in Salmonella typhimurium TA1537 in presence of rat liver S9 fraction by AMES test; format: toxicity, subcellular; conditions: salmonella enterica subsp. enterica serovar typhimurium
[28] = Mutagenicity in Salmonella typhimurium TA1537 in absence of rat liver S9 fraction by AMES test; format: toxicity; conditions: salmonella enterica subsp. enterica serovar typhimurium
[29] = Mutagenicity in Escherichia coli WP2 uvrA in absence of rat liver S9 fraction by AMES test; format: toxicity

Sequence of 5-hydroxytryptamine receptor 2B (Homo sapiens) (P41595 whole entry): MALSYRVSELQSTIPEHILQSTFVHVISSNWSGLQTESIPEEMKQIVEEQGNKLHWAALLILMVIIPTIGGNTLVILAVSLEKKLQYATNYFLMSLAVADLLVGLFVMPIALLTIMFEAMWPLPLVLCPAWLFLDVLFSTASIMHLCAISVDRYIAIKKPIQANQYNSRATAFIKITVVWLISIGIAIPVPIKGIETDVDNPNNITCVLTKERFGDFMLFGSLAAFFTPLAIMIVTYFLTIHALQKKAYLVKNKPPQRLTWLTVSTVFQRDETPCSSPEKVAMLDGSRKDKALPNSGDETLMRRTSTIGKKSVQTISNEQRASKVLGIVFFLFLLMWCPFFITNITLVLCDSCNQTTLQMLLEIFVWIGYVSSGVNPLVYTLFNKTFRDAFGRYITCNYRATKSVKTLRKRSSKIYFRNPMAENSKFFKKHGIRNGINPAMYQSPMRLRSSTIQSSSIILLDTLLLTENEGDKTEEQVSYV
Sequence of Neuronal acetylcholine receptor subunit alpha-7 (P36544 whole entry): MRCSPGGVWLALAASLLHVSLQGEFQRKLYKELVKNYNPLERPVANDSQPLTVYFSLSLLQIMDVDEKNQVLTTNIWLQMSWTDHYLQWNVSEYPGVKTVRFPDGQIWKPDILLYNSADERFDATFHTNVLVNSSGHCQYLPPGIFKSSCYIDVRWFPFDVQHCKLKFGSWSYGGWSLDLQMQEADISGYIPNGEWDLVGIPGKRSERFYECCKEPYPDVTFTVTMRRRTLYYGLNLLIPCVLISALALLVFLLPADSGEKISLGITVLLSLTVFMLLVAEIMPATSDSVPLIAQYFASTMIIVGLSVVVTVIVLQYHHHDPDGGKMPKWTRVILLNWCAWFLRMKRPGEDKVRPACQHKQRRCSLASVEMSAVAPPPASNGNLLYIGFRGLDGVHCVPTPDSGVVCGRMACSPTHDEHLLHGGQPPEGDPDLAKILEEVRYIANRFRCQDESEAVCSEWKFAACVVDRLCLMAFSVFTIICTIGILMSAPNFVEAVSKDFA
Sequence of Sigma non-opioid intracellular receptor 1 (Homo sapiens) (Q99720 whole entry): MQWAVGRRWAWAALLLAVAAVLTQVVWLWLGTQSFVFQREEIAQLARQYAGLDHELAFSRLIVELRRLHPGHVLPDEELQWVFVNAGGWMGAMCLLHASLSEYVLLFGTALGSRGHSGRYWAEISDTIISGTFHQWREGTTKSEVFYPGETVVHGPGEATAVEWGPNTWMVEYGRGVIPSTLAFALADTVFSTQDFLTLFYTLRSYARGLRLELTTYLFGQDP

Activity [2]: inactive
Kp at 35 min [3]: 4.93
Papp A→B at 2 h, 10 µM [4]: 307 nm/s
Activity [5]: < 7%
inhibition [6]: < 7%
pEC50 [7]: 7.05
microsomal CLint at 1 µM [8]: 15 µL/min/mg
microsomal CLint at 1 µM [9]: 158 µL/min/mg
microsomal CLint at 1 µM [10]: 55 µL/min/mg
inhibition [11]: 98%
inhibition [12]: 55%
inhibition [13]: < 15%
inhibition [14]: < 15%
inhibition [15]: < 15%
inhibition [16]: < 15%
efflux ratio at 2 h, 10 µM [17]: 0.7
concentration at 1 h [18]: 0.0031 µM
concentration at 1 h [19]: 0.0055 µM
concentration at 1 h [20]: 0.039 µM
concentration at 1 h [21]: 0.064 µM
concentration at 1 h [22]: 0.233 µM
Kp at 1 h [23]: 1.32
Kp at 1 h [24]: 1.67
concentration at 35 min [25]: 0.054 µM
SMILES: Cc1ccc(CN2CCN(C(=O)C(=O)Nc3ccc4c(ccn4C)c3)CC2)cc1
Activity [1]: Non-Toxic
Activity (Rattus norvegicus): inactive
Activity [26]: Non-Toxic
Activity [27]: Non-Toxic
Activity [28]: Non-Toxic
Activity [29]: Non-Toxic
